In paper PMC12040169 (PLOS Biology, 2025):

assay: in vitro; settings: human, hela cells, % viability

Compared with `Cc1ccc(S(=O)(=O)Nc2nnc(C)s2)cc1` [CBK045486], `COc1ccc(S(=O)(=O)Nc2nnc(C)s2)cc1` [CBK045543] is higher in viability at 28.5 h, 10 µM: 92.5% for the first, 114% for the second.

Compared with `O=S(=O)(Nc1nncs1)c1ccccc1` [CBK045489], `CC(C)c1nnc(NS(=O)(=O)Cc2ccccc2)s1` [CBK045540] is higher in viability at 28.5 h, 10 µM: 86.7% for the first, 93% for the second.

Going from `CC(=O)Nc1ccc(S(=O)(=O)Nc2nnc(C(C)(C)C)s2)cc1` [CBK045499] to `CC(C)(C)c1nnc(NS(=O)(=O)c2ccc([N+](=O)[O-])cc2)s1` [CBK045500], the viability at 28.5 h, 10 µM falls from 100% to 93.3%.

Going from `CC(=O)Nc1ccc(S(=O)(=O)Nc2nnc(Cc3ccc(Cl)cc3)s2)cc1` [CBK045515] to `COCc1nnc(NS(=O)(=O)c2ccc(Br)cc2)s1` [CBK045526], the viability at 28.5 h, 10 µM rises from 97.9% to 115%.

Compared with `Cc1cc(C)c(S(=O)(=O)Nc2nnc(C(C)C)s2)c(C)c1` [CBK045516], `Cc1ccc(S(=O)(=O)Nc2nnc(C(C)C)s2)cc1` [CBK045528] is higher in viability at 28.5 h, 10 µM: 102% for the first, 108% for the second.

Compared with `COc1ccc(S(=O)(=O)Nc2nnc(C(C)C)s2)cc1` [CBK045525], `Cc1ccc(S(=O)(=O)Nc2nc(C)c(C(=O)N3CCN(C)CC3)s2)cc1` [CBK045812] is lower in viability at 28.5 h, 10 µM: 91.3% for the first, 88.3% for the second.

First: O=S(=O)(Cc1ccccc1)Nc1nnc(C(F)(F)F)s1 [CBK045539]
Second: CCOC(=O)c1sc(NS(=O)(=O)Cc2ccccc2)nc1C [CBK047448]
The viability at 28.5 h, 10 µM of the first is lower: 84.8% for the first, 105% for the second.

First: Cc1nc(NS(=O)(=O)/C=C/c2ccccc2)sc1C(=O)O [CBK045553]
Second: Cc1nc(NS(=O)(=O)c2cccc(Cl)c2C)sc1C(=O)O [CBK045561]
The viability at 28.5 h, 10 µM of the first is lower: 84.7% for the first, 110% for the second.

First: Cc1nc(NS(=O)(=O)c2cc(F)c(Br)cc2F)sc1C(=O)O [CBK045556]
Second: Cc1ccc(S(=O)(=O)Nc2nc(C)c(C(=O)O)s2)cc1[N+](=O)[O-] [CBK045565]
The viability at 28.5 h, 10 µM of the first is higher: 96.5% for the first, 91.3% for the second.

Compared with `O=S(=O)(NCc1cccc(Cl)c1)c1csc2ccnc(N3CCNCC3)c12` [CBK045595C], `CCCCc1ccc(S(=O)(=O)n2ccc3c(N4CCNCC4)nccc32)cc1` [CBK045805C] is higher in viability at 28.5 h, 10 µM: 88.6% for the first, 100% for the second.

First: COc1ccc(N(C)C(=O)N[C@@H]2CC[C@@]3(c4ccc(OC)c(OC)c4)CCN(C)[C@H]3C2)cc1 [CBK045653T]
Second: COc1ccc([C@@]23CC[C@@H](NC(=O)Nc4cccc(Br)n4)C[C@@H]2N(C)CC3)cc1OC [CBK045703]
The viability at 28.5 h, 10 µM of the first is higher: 112% for the first, 85.4% for the second.

First: OCc1ncccc1OCCOC1CCCCO1 (stereo not drawn) [CBK045702]
Second: Oc1cccnc1N1CCNCC1 [CBK045850]
The viability at 28.5 h, 10 µM of the first is higher: 97.5% for the first, 88.8% for the second.

Going from `COc1ccc([C@@]23CC[C@@H](NC(=O)Nc4ccc(Cl)nc4)C[C@@H]2N(C)CC3)cc1OC` [CBK045764] to `COc1ccc([C@@]23CC[C@@H](NC(=O)Nc4cc(C)nc(C)c4)C[C@@H]2N(C)CC3)cc1OC` [CBK045876], the viability at 28.5 h, 10 µM falls from 91.9% to 90.9%.

Compared with `COc1ccc([C@@]23CCC(CC(=O)O)C[C@@H]2N(C)CC3)cc1OC` (stereo partly drawn) [CBK045765A], `COc1ccc([C@@]23CC[C@@H](NC(=O)Nc4ccccc4C#N)C[C@@H]2N(C)CC3)cc1OC` [CBK047540T] is lower in viability at 28.5 h, 10 µM: 107% for the first, 96.1% for the second.

Compared with `Cc1nc(NS(=O)(=O)c2cc(Cl)sc2Cl)sc1C(=O)N1CCN(C)CC1` [CBK045818], `COc1ccc2c(c1)CC(=O)NC21CCN(C(=O)NC(C)C)CC1` [CBK047261] is lower in viability at 28.5 h, 10 µM: 106% for the first, 95.7% for the second.

Compared with `Cc1oc(-c2cccc(Cl)c2)cc1C(=O)O` [CBK045856], `CNC(=O)c1cc(-c2cccc(C)c2)oc1C` [CBK047432] is higher in viability at 28.5 h, 10 µM: 78% for the first, 80.3% for the second.

Compared with `CCCCCCN1CCN(c2nccn(CCOc3cc(F)c(F)cc3F)c2=O)CC1` [CBK045889C], `COc1cc2c(cc1OC)C1(CCN(C(=O)Nc3ccc(F)cc3F)CC1)NC(=O)C2` [CBK047264] is lower in viability at 28.5 h, 10 µM: 113% for the first, 84.8% for the second.

Compared with `CCCC(=O)Nc1ccccc1OC1CCNCC1` [CBK045902T], `COc1cc(F)cc(OC2CCNCC2)c1NC(=O)C1CCC1` [CBK045912T] is lower in viability at 28.5 h, 10 µM: 98% for the first, 92.3% for the second.

First: Cc1nn(C)c(N2CCNCC2)c1NC(=O)C(C)c1ccccc1 (stereo not drawn) [CBK045929T]
Second: Cc1oc(-c2ccccc2)nc1C(=O)O [CBK047490]
The viability at 28.5 h, 10 µM of the first is higher: 108% for the first, 98.4% for the second.

First: Cc1noc(C)c1NC(=O)N(Cc1ccccc1C(F)(F)F)C1CCC(N)CC1 (stereo not drawn) [CBK045963C]
Second: CC(C)(C)c1ccccc1NC(=O)N(CCN)Cc1cc(F)cc(F)c1 [CBK046263C]
The viability at 28.5 h, 10 µM of the first is higher: 103% for the first, 98.6% for the second.

First: NCc1ccc(CN(Cc2cccc(Cl)c2)C(=O)NC(c2ccccc2)c2ccccc2)cc1 [CBK046087C]
Second: NCc1ccc(CN(Cc2cnc(-c3ccccc3)[nH]2)C(=O)Nc2ccc3c(c2)OCO3)cc1 [CBK046158C]
The viability at 28.5 h, 10 µM of the first is higher: 91.6% for the first, 89% for the second.

First: CC(=O)Nc1c(C#N)cnn1C [CBK046332]
Second: Cc1oc(-c2ccc(Cl)cc2)cc1C(=O)CC#N [CBK047603]
The viability at 28.5 h, 10 µM of the first is higher: 96% for the first, 85.4% for the second.

Compared with `COc1ccccc1-c1nc(C2CCCN2C(=O)CCCC(=O)O)n2ccccc12` (stereo not drawn) [CBK046600], `COc1ccccc1-c1nc(C2CCCN2C(=O)N[C@@H](C)c2ccccc2)n2ccccc12` (stereo partly drawn) [CBK046625] is higher in viability at 28.5 h, 10 µM: 90.3% for the first, 109% for the second.

Going from `CC(CC(=O)O)CC(=O)N1CCCC1c1nc(-c2ccc(F)cc2)c2ccccn12` (stereo not drawn) [CBK046626] to `Cc1ccc(-c2nc(C3CCN(C(=O)NC(C)C)CC3)n3ccccc23)cc1` [CBK046861], the viability at 28.5 h, 10 µM falls from 99.4% to 95%.

Going from `O=C(Nc1ccc2c(c1)CCO2)N1CCCC1c1nc(-c2ccccc2)c2ccccn12` (stereo not drawn) [CBK046733] to `O=C(Nc1cccc(Cl)c1)N1CCCC(c2nc(-c3ccccc3)c3ccccn23)C1` (stereo not drawn) [CBK047233], the viability at 28.5 h, 10 µM falls from 117% to 90.4%.

First: O=C(O)COCC(=O)N1CCCC(c2nc(-c3ccccc3)c3ccccn23)C1 (stereo not drawn) [CBK046806]
Second: COc1ccccc1-c1nc(C2CCCN(C(=O)NCCc3cccs3)C2)n2ccccc12 (stereo not drawn) [CBK047163]
The viability at 28.5 h, 10 µM of the first is lower: 86.1% for the first, 95.5% for the second.

Going from `O=C(NC(=O)N1CCC2(CC1)NCCc1c2[nH]c2ccc(O)cc12)c1ccccc1` [CBK046936] to `O=C(NC(=O)N1CCC2(C1)NCCc1c2[nH]c2ccccc12)c1ccccc1` (stereo not drawn) [CBK046985], the viability at 28.5 h, 10 µM rises from 87.4% to 94.2%.

Going from `O=C(O)c1ccccc1C(=O)N1CCC2(CC1)OCCc1c2[nH]c2ccccc12` [CBK046981] to `O=C(O)c1ccccc1C(=O)N1CCC2(CC1)NCCc1c2[nH]c2ccccc12` [CBK047235], the viability at 28.5 h, 10 µM falls from 94.9% to 83.9%.

First: C/C(C(=O)O)=C(/C)C(=O)N1CCC2(C1)NCCc1c2[nH]c2ccccc12 (stereo not drawn) [CBK046995]
Second: Cc1ccc2[nH]c3c(c2c1)CCNC31CCN(C(=O)CC(C)CC(=O)O)CC1 (stereo not drawn) [CBK047196]
The viability at 28.5 h, 10 µM of the first is lower: 100% for the first, 109% for the second.

Going from `COc1ccc2[nH]c3c(c2c1)CCNC31CCN(C(=O)NC(C)(C)C)CC1` [CBK047069] to `Cc1ccc2[nH]c3c(c2c1)CCNC31CCN(C(=O)[C@@H]2CCCC[C@@H]2C(=O)O)CC1` [CBK047222], the viability at 28.5 h, 10 µM falls from 97.4% to 89.9%.

Compared with `COc1ccc(-c2nc(C3CCN(C(=O)NC(C)(C)C)CC3)n3ccccc23)cc1` [CBK047080], `C[C@H](NC(=O)N1CCC(c2nc(-c3ccccc3)c3ccccn23)CC1)c1ccccc1` [CBK047086] is lower in viability at 28.5 h, 10 µM: 97.4% for the first, 92.7% for the second.

Compared with `Cc1ccc(CNC(=O)N2CCC3(CC2)OCCc2c3[nH]c3ccccc23)cc1` [CBK047121], `O=C1Cc2ccccc2C2(CCN(C(=O)NCc3cccc(F)c3)CC2)N1` [CBK047288] is lower in viability at 28.5 h, 10 µM: 93.3% for the first, 81% for the second.

First: COc1ccc2[nH]c3c(c2c1)CCOC31CCN(C(=O)CC(C)CC(=O)O)CC1 (stereo not drawn) [CBK047197]
Second: COc1cc2c(c(OC)c1OC)CC(=O)NC21CCN(C(=O)CC(C)CC(=O)O)CC1 (stereo not drawn) [CBK047265]
The viability at 28.5 h, 10 µM of the first is higher: 100% for the first, 94.8% for the second.

Compared with `COc1ccc2c(c1)CC(=O)NC21CCN(C(=O)CCCC(=O)O)CC1` [CBK047208], `O=C1Cc2cc3ccccc3cc2C2(CCN(C(=O)c3ccccc3C(=O)O)CC2)N1` [CBK047216] is higher in viability at 28.5 h, 10 µM: 90.3% for the first, 94.8% for the second.

Going from `Cc1ccc(-c2nc(C3CCCN(C(=O)NC4CCCCC4)C3)n3ccccc23)cc1` (stereo not drawn) [CBK047241] to `CC(NC(=O)N1CCC2(CC1)NC(=O)Cc1ccccc12)c1cccc2ccccc12` (stereo not drawn) [CBK047280], the viability at 28.5 h, 10 µM falls from 94.4% to 84%.

Going from `COc1ccccc1NC(=O)N1CCC2(CC1)NC(=O)Cc1cc3ccccc3cc12` [CBK047284] to `COc1cc2c(c(OC)c1OC)CC(=O)NC21CCN(C(=O)NC(C)(C)C)CC1` [CBK047301], the viability at 28.5 h, 10 µM rises from 92.1% to 94.2%.

Compared with `CCOC(=O)c1[nH]c2ccccc2c1NS(=O)(=O)c1ccc(Br)cc1` [CBK047409], `CCOC(=O)c1[nH]c2ccccc2c1NS(=O)(=O)Cc1ccccc1[N+](=O)[O-]` [CBK047426] is lower in viability at 28.5 h, 10 µM: 116% for the first, 94.7% for the second.

Compared with `CN1CCN(CC(=O)Nc2cc(N3CCOCC3)ccc2[N+](=O)[O-])CC1` [CBK047475], `CCOC(=O)c1ccccc1NC(=O)N[C@@H]1CC[C@@]2(c3ccc(OC)c(OC)c3)CCN(C)[C@H]2C1` [CBK047494T] is higher in viability at 28.5 h, 10 µM: 92.9% for the first, 94.9% for the second.

Compared with `C[C@H]1CNCCN1c1nccnc1Cl` [CBK047524F], `COc1ccc([C@@]23CCC(NC(=O)Nc4ccc5c(c4)Cc4ccccc4-5)C[C@@H]2N(C)CC3)cc1OC` (stereo partly drawn) [CBK047550T] is lower in viability at 28.5 h, 10 µM: 88% for the first, 85.9% for the second.

Going from `COc1ccc([C@@]23CCC(NC(=O)Nc4ccc(OCc5ccccc5)cc4)C[C@@H]2N(C)CC3)cc1OC` (stereo partly drawn) [CBK047551T] to `CN(C)C(=O)c1ccc(Cn2nc(C(=O)NCCOc3ccccc3)c3ccccc32)cc1` [CBK047700], the viability at 28.5 h, 10 µM falls from 105% to 91.7%.

same assay, conditions: human, hela cells, % viability, bulk resorufin, single well

Going from `CN(C)C(=O)c1ccc(Cn2nc(C(=O)NC3CC3)c3ccccc32)cc1` [CBK047720] to `CONC(=O)c1nn(Cc2ccc(C)cc2)c2ccccc12` [CBK047848], the viability at 28.5 h, 10 µM falls from 93.1% to 79.6%.

Compared with `Cc1ccc(Cn2nc(C(=O)NCc3ccncc3)c3ccccc32)cc1` [CBK047832], `Cc1ccc(Cn2nc(C(=O)Nc3ccccn3)c3ccccc32)cc1` [CBK047839] is higher in viability at 28.5 h, 10 µM: 82.7% for the first, 105% for the second.
